What was measured:
[1] = test system: TMEM; experiment: Intravital imaging of TMEM-dependent vascular permeability (bursting); assay type: in vivo, mouse; details: co-administration of rebastinib in paclitaxel-treated mice; intravital imaging
From the text: Paclitaxel Induces TMEM-Dependent Vascular Permeability in Breast Tumors—Given that chemotherapy treatment may affect blood vessel dynamics by inducing angiogenesis (9, 11-13, 35-37), intravital imaging (IVI) (FIG. 2A) was used to investigate whether neoadjuvant paclitaxel induces TMEM-dependent (localized) or TMEM-independent (more universal) blood vessel leakage. […] As also reported previously (1), we never observed any bursting incidents without juxtaposition to a clearly defined TMEM site. Bursting was documented by the accumulation of Dextran-TMR signal over time around an active TMEM site, and no such accumulation was observed away from TMEM (FIGS. 2B-C). The entire time-lapse of these was recorded in videos, respectively. The intensity values from all TMEM-mediated bursting incidents observed in paclitaxel-treated mice were averaged and plotted over the entire time of bursting activity (FIG. 2D), which confirmed the transient nature of paclitaxel-induced TMEM-dependent vascular permeability.
(§1) Drug Administration. The following drugs were administered in mice: Paclitaxel was given at 10 mg/Kg i.v every 5 days for 2 weeks; Doxorubicin was given at 5 mg/Kg i.v. every 5 days for 2 weeks; Cyclophosphamide was given at 120 mg/Kg i.p. only once; Rebastinib was given at 10 mg/Kg per os, every 3-4 days for 4 weeks.
Intravital Imaging. Intravital imaging was performed using a custom-built two-laser multiphoton microscope, as previously described (57). Mice were anesthetized using 0.75-2.5% isofluorane, depilated. A skin flap procedure, previously developed (58), was performed by exposing the 4th or 5th mammary fat pad. Given the early stage of carcinoma and small tumor size, this necessitated the development of a custom fixturing technique where the exposed tissue was stabilized by affixing the edge of a 10-mm window fitted with an 8-mm clear aperture respectively with cyanoacrylate. The mouse was then placed on a fixturing plate, fitted to the respective window, on the microscope xy stage and imaging was performed in the center of the window away from the glue. The animal was placed in a heated chamber, AirTherm ATX forced air heater (WPI Inc.), maintained at physiologic temperature during the course of imaging, and supplemented with 50-100 uL of PBS per hour via the tail vein catheter. As previously described (1), three milligrams of 155-kDa TMR-dextran (Sigma) were administered via the catheter to visualize the vasculature. All images were reconstructed and analyzed in ImageJ (59), as described in Supplementary Methods.

[2] = test system: circulating tumor cells; experiment: Circulating tumor cells per mL of blood; assay type: in vivo, mouse; details: PyMT-transplantation and HT17 xenograft
Description: as §1
Circulating Tumor Cells. Mice were anesthetized with 3.5-4.5% isoflurane, and blood was taken from the right ventricle by heart puncture, using 25G needles coated with heparin. Erythrocytes were lysed, using 10 ml of 1×RBC lysis buffer (multi-species, eBioscience). Cancer cells were quantified, as previously described (31, 60).

[3] = test system: Tie2^hi/Vegf^hi macrophages; experiment: Macrophage infiltration by multi-channel immunofluorescence (Iba1, Cd31, Tie2, Vegf); assay type: in vivo, mouse
From the text: The functional TMEM sites contain Tie2^hi/Vegf^hi macrophages and invasive tumor cells in perivascular regions (1), and it was independently shown that chemotherapy may promote mobilization of such Tie2^hi monocyte progenitors in primary tumors (8, 10). The Tie2^hi/Vegf^hi macrophage subpopulation was quantified herein using multi-channel immunofluorescence (IF) imaging (FIGS. 1D-F) (10, 14, 34). FIG. 1E illustrates a representative IF image of a Tie2^hi/Vegf^hi macrophage quantified using Cd31, Iba1, Vegf and Tie2 staining.
as §1
(§2) Animals and Animal Procedures. MMTV-PyMT mice were bred in-house at the Albert Einstein College of Medicine (AECOM). Generation of MMTV-PyMT Mena^−/− has been described previously (28). CFP- or Dendra2-labeled mammary carcinoma cells were generated on the FVB background by co-injection of Tg(MMTV-iCRE)1jwp together with Tg(PCAG-loxp-CATstop-loxp-CFP) or Tg(loxP-stop-loxP-PDendra2)jwp plasmids, respectively, by conventional methods in the Albert Einstein Transgenic Mouse Facility. All syngeneic transplantation models were generated through orthotopic transplantation of 1 mm×1 mm tumor chunks, using tumors of 1 cm-diameter from 12-16-week old MMTV-PyMT mena−/− or mena+/+ donor mice into 5-6 week-old FVB recipients. Tumor chunks were implanted on the fourth mammary pad on the left side. The generation of the ER^− HT17 and ER^+ HT33 patient-derived xenografts has been described previously (31). Animal handling and associated procedures were approved by the Institutional Animal Care and Use Committee (IACUC). Additional information is detailed in Supplementary Methods.
Immunofluorescence. Slides were deparaffinized by melting at 60° C. in an oven equipped with a fan for 20 minutes, followed by 2× xylene treatment for 20 minutes. Slides were rehydrated and antigen retrieval was done in 1 mM EDTA (pH 8.0) or 1× citrate buffer (pH 6.0) (Diagnostic BioSystems) at 97° C. for 20 minutes in a conventional steamer. Endogenous peroxidase was blocked by using 0.3% hydrogen peroxide in water, followed by incubation of slides in a blocking buffer solution (10% FBS, 1% BSA, 0.0025% fish skin gelatin in 0.05% PBST) for 60 minutes at room temperature. The following primary antibodies were used in different combinations, depending on the experiment: chicken anti-Mena^INV (0.25 ug/mL, generated in-house in the lab of John S. Condeelis), rabbit anti-Cd31 (1:400; 77699s; Cell Signaling), rabbit anti-Vegf (1:2,000; Rb 9031-PO-A; Thermo), rat anti-Tie2 (1:100; 16-5987-82; eBioscience), rabbit anti-Iba1 (1:6,000; 019-19741; Wako), rat anti-endomucin (1:500; sc-65495; Santa Cruz), rabbit anti-TMR (1:1,000; A-6397; Life Technologies). Secondary antibody treatment was performed using HRP-conjugated antibodies, and was followed by tyramide signal amplification (TSA), using the Perkin Elmer; Opal™ 4-color Fluorescent IHC kit, according to the manufacturer's directions. All slides were imaged on the Pannoramic 250 Flash II digital whole slide scanner, using a 20×0.75NA objective lens. Image analysis was performed in ImageJ, detailed in Supplementary Methods.

[4] = test system: TMEM; experiment: TMEM score by triple-stain immunohistochemistry in mouse breast tumors; assay type: in vivo
From the text: This hypothesis was investigated in the following breast carcinoma models: (i) transgenic MMTV-PyMT mice bearing spontaneous breast tumors, (ii) FVB mice transplanted orthotopically with tumors from MMTV-PyMT donors, and (iii) two patient-derived xenografts (PDX), HT17 and HT33, developed previously in our laboratory (31). […] Treatment of all groups began at the early carcinoma stage (tumor size of ˜0.3 cm) when there is minimal or absent necrosis. It was decided to work with the early-stage PyMT mouse mammary carcinoma model because it more accurately reflects clinically relevant scenarios where most women present with small tumors of <2 cm (32).
as §1, §2
Histology and TMEM Immunohistochemistry. Breast tumors and lungs were isolated, rinsed in PBS, fixed in 10% neutral buffered formalin for 48 hours, dehydrated and embedded in paraffin. Sections (5 μm) were stained with H & E or TMEM triple-stain immunohistochemistry, as previously described (3).

[5] = rebastinib in paclitaxel-treated animals
[6] = single agent vs vehicle, PyMT-transplantation and HT17 xenograft

`CNC(=O)c1cc(Oc2ccc(NC(=O)Nc3cc(C(C)(C)C)nn3-c3ccc4ncccc4c3)c(F)c2)ccn1` [rebastinib, 4-[4-[(5-tert-butyl-2-quinolin-6-ylpyrazol-3-yl)carbamoylamino]-3-fluorophenoxy]-N-methylpyridine-2-carboxamide] was tested, and the frequency of bursting [1] was “completely abolished”, the incidence of bursting [1] was “completely abolished” and the circulating tumor cells [2, 5] was “decreased circulating tumor cells to the level observed in the control animals”. The “number of CTCs (TMEM activity)” value ([2]; single agent vs vehicle) was “reduced”, the “number of perivascular Tie2^hi/Vegf^hi macrophages” value [3, 5] was “decreased” and the “density of perivascular Tie2^hi/Vegf^hi macrophages” value [3, 6] was “did not significantly affect”. The TMEM assembly [4, 5] was “without affecting” and the “overall TMEM score (TMEM assembly)” value [4, 6] was “did not significantly affect”.
